Data from patent publication US20090209457A1, “TREATMENT OF ANTI-ERYTHROPOIETIN ANTIBODY-MEDIATED DISORDERS WITH SYNTHETIC PEPTIDE-BASED EPO RECEPTOR AGONISTS” (Affymax, Inc., priority 2008, published 2009).
Entries after “also recorded” stand apart in the source; their conditions may differ. Bridge positions count the residues as written; N and C are the ends. Square brackets hold non-standard residues; d marks the D form. Ends that are not written are not given here. 1Nal = N[C@@H](Cc1cccc2ccccc12)C(=O)O; Sar = CNCC(=O)O

How the values were obtained:
rat model of PRCA = test: Rat model of PRCA (anti-EPO antibody-induced anemia); type: in vivo
Method: The efficacy of Peptide I to correct anemia due to recombinant EPO anti-body induced PRCA was assessed in a rat model of PRCA. […] The rat model of PRCA consisted of induction of anti-EPO antibodies in a rat to yield a model of PRCA. Subsequent to inducing PRCA in rats, the erythropoietic activity of Peptide I, compared to rats treated with recombinant EPO, was evaluated in the rat model of PRCA following weekly administrations of Peptide I or recombinant EPO.
Additionally, administration of Peptide I to rats positive for anti-EPO antibodies allowed evaluation of Peptide I to correct PRCA-induced anemia.
Experiments were also conducted in anemic anti-EPO antibody positive rats to determine if normal hemoglobin levels could be maintained. The anemic anti-EPO antibody positive rats were treated with Peptide I approximately every 4 weeks for a total of additional seven injections. Hemoglobin levels in the Peptide I and vehicle-treated antibody-positive rats were compared to concurrent controls.
EPO-induced PRCA in humans and rats characterized by severe anemia associated with the presence of anti-EPO antibodies, an absence of reticulocytes, and limited bone marrow erythroid precursors with concomitant presence of normal numbers of granulocytic and megakaryocytic lineages. Peptide I corrected the EPO-induced anemia in these animals.

[1] = system: bone marrow cultures established from healthy human donors; test: Bone marrow cultures with patient serum (erythroid colonies); type: cell-based
Method: The anti-Peptide I antibody assay was performed in the laboratories of the Sponsor using an ELISA method, with a sensitivity of 300 ng/mL [Fan Q., et al. (2006) Exp. Hematol. 34: 1303-11; Woodburn K W, et al. (2007) Exp. Hematol. 35: 1201-8]. Anti-EPO antibodies were measured by radioimmune precipitation assay. To confirm that the patient's antibodies were not cross-reactive with Peptide I, serum from three patients was tested in bone marrow cultures (established from healthy human donors, as previously described [Verhelst D, et al. (2004) Lancet 363: 1768-71]). Culture conditions included 20% of either fetal calf serum as a control or one of the study patient's serum. Cultures included either 1 IU/mL of recombinant human EPO or 0.55 μg/mL of Peptide I (a concentration previously shown to be equivalent to 1 IU/mL of EPO for erythroid growth). Erythroid colonies were counted on day 7.

[2] = system: patients with anti-EPO antibody-mediated PRCA; test: Open-label clinical study in patients with anti-EPO antibody-mediated PRCA; type: in vivo, human
Method: An open-label, prospective, non-randomized study was conducted to investigate the ability of Peptide I to correct anemia in patients with PRCA that is characterized by anti-EPO antibodies. The pre-specified primary objective was to determine if Peptide I could increase and maintain hemoglobin levels above 11 g/dL (consistent with both U.S.[KDOQI Clinical Practice Guidelines and Clinical Practice Recommendations for Anemia in Chronic Kidney Disease (2006) Am. J. Kidney Dis. 47 (Suppl 3):S11-S145.] and European Guidelines [Locatelli F, et al. (2004) Nephrol. Dial. Transplant 19 (Suppl 2): ii1-47.]) without the need for red cell transfusions in patients with anti-EPO antibody-mediated PRCA during 6 months of treatment. The effect of Peptide I on reducing red cell transfusions, the time required to correct anemia in the absence of transfusions, dose requirements, and safety were also assessed.
Patients older than 18 years of age were eligible for inclusion if they had CKD (with or without the need for dialysis) and PRCA or red cell hypoplasia due to anti-EPO antibodies. Patients were required to have a documented history of: (1) a decrease in hemoglobin concentration while receiving a stable or increased dose of a protein-based ESA, or red cell transfusion dependency; (2) reticulocyte counts of <30×10^9/L; (3) a bone marrow examination showing severe erythroid hypoplasia or aplasia; and (4) a confirmed positive test for anti-EPO antibodies. Patients may have received immunosuppressive therapy previously, but these medications were to be discontinued for at least three months prior to enrollment. At the time of enrollment, patients had to either be transfusion-dependent, or have a hemoglobin concentration persistently below 11 g/dL without ESA therapy. The presence of another hematological disorder, another known cause of PRCA, and current treatment with ESA or immunosuppressive therapy represented the major exclusion criteria.
Blood samples were taken for baseline measurement of the complete blood count, reticulocyte count, urea, electrolytes, liver function tests, iron status, anti-EPO antibodies, and anti-Peptide I antibodies. Upon meeting study eligibility criteria, treatment with Peptide I was initiated at a dose of 0.05 mg/kg by SC injection Q4W. Hemoglobin and reticulocyte counts were performed weekly, while samples were taken monthly for other safety laboratory parameters including urea, electrolytes, liver function tests and anti-EPO and anti-Peptide I antibodies. The frequency and dose of each injection was adjusted based on the patient's hemoglobin response to achieve a hemoglobin level in the target range of 11-13 g/dL. This target was subsequently changed to 11-12 g/dL in early 2007 following publication of the CREATE [Drueke T B, et al. (2006) N. Engl. J. Med. 355: 2071-84] and CHOIR [Singh A K, et al. (2006) N. Engl. J. Med 355: 2085-98] studies, in line with subsequent KDOQI recommendations [KDOQI Clinical Practice Guideline and Clinical Practice Recommendations for Anemia in Chronic Kidney Disease (2007) Am. J. Kidney Disease 50: 471-530].
The study was designed to enroll 5-20 patients with anti-EPO antibody mediated PRCA based on the Investigators' estimate of the maximum number of potentially eligible patients with access to the study centers. Patients were to be treated for an initial 6-month period. […] All patients who received at least one dose of Peptide I were included in the safety analysis, and those with at least one hemoglobin value following dosing were included in the efficacy analyses. All safety and efficacy results were summarized using descriptive statistics and data are presented as medians, 25th and 75th percentiles, and ranges.

PEGylated homodimer of peptide monomers (AcG)GLYACHMGPIT(1-nal)VCQPLR(MeG)K (SEQ ID NO: 2), EPO-R agonist (Ac-GGLYACHMGPIT[1Nal]VCQPLR[Sar]K; disulfide 6-15 (inferred); not fully specified (residue 21); printed as (AcG)GLYACHMGPIT(1-nal)VCQPLR(MeG)K; also: PEGylated) [Peptide I]
maintenance of hemoglobin levels (rat model of PRCA; anemic anti-EPO antibody-positive rats, repeat administrations every 4 weeks): sustained correction of hemoglobin levels | reticulocytosis (rat model of PRCA; anti-EPO antibody-positive anemic rats, compared to recombinant EPO treated rats): significantly increased | hemoglobin levels (rat model of PRCA; anti-EPO positive animals versus antibody-negative control rats): greater than hemoglobin levels achieved in the anti-EPO antibody-negative control rats | correction of antibody-induced anemia (rat model of PRCA; rat model of PRCA): corrected antibody-induced anemia; also recorded: reversed | erythroid growth in presence of patient serum ([1]; 20% serum of three patients, 1 IU/mL EPO or 0.55 μg/mL Peptide I, colonies counted day 7): erythroid differentiation was observed | concentration equivalent to 1 IU/mL of EPO for erythroid growth ([1]; previously shown): 0.55 µg/mL | patients with hemoglobin response (above 11 g/dL without transfusion) ([2]; 10 patients, median follow up 13.5 months, SC Q4W): 10 patients | tolerability ([2]; SC injections): generally well-tolerated | patients receiving red blood cell transfusions ([2]; as of month 4): one | median ferritin levels ([2]; at data cut-off, baseline 1,356 μg/L): 1,243 μg/L | median TSAT ([2]; at data cut-off, baseline 70.9%): 50.0% | patients receiving red blood cell transfusions ([2]; at month 6): no patient | median hemoglobin ([2]; by 6 months, baseline 9.7 g/dL): 11.6 g/dL | patients receiving red blood cell transfusions ([2]; during month 7 (prior to kidney transplant surgery)): one | patients receiving red blood cell transfusions ([2]; during the first month): 3 patients | patients receiving red blood cell transfusions ([2]; from month 8 onwards): no patient | median time to hemoglobin response ([2]; human, in vivo): 10 weeks | serious adverse events related to study drug ([2]; human, in vivo): none of these events was considered related to study drug; also recorded: no reports of serious adverse events related to Peptide I | serious adverse events ([2]; in 2 patients): Four | adverse events reported ([2]; in 10 patients): 108 events | adverse events at least possibly related to Peptide I ([2]; of 108 events): 4 events | adverse events mild or moderate in severity ([2]; of 108 events): 97 events
